Assay results from patent publication US20260200920A1, “SUBSTITUTED AMINOPYRIDINE COMPOUNDS FOR USE AS AKT1 INHIBITORS” (Atavistik Bio, Inc., priority 2023, published 2026).

Columns and labels:
[1] = target: T1, human recombinant kinase full-length wildtype AKT1 (Homo sapiens, UniProt P31749); assay: AKT1 kinase assay (wildtype, TR-FRET, Lance); type: biochemical; conditions: 0.6 nM wildtype AKT1, 50 nM Ulight-CREBtide, either 50 μM ATP or 2 mM ATP, 60 min at RT
T1 construct: Purified human recombinant kinase full-length wildtype AKT1 was expressed in insect cells; made in house; host or cells: insect cells
Experimental: AKT1 kinase assay: Inhibitory effects of compounds on wildtype AKT1 were undertaken in a 10-pt dose response kinase activity assay measuring phospho-peptide product formation based on TR-FRET signal as described in the following paragraph.
(§1) Purified human recombinant kinase full-length wildtype AKT1 was expressed in insect cells and activated in vitro by PDPK1. Ulight™-CREBtide (PerkinElmer, catalog number TRF0107) was used as the peptide substrate. The reaction buffer consisted of 50 mM HEPES pH 7.5, 10 mM MgCl2, 0.01% Triton X-100, 0.01% BSA, 2 mM DTT, 0.6 nM AKT1,50 nM Ulight™-CREBtide and either 50 μM ATP or 2 mM ATP. The compound solution was prepared as 10 mM DMSO stock. For the assay, a 1:3 serial dilution 10-pt dose response of test compounds, in duplicate, for each concentration were dispensed into a 384-well plate (Corning, catalog number 4513). Final DMSO concentration in the assay was 1%. The enzyme mixture (5 μL, 1.2 nM) were added and the mixture was incubated for 15 min at RT prior to the start of the kinase reaction by the addition of 5 μL substrate mixture (100 nM Ulight™-CREBtide). The reaction was stopped after 60 min of incubation at RT by the addition of 10 μL of Detection Mix (PerkinElmer, #CR97-100) consisting of Europium-anti-phospho-CREB (Ser133) (Perkin Elmer, catalog number TRF0200). Incubation with the detection mix for a further 60 min allowed binding of antibody to the phospho-Ulight™ CREBtide. The fluorescence emissions at 620 nm and 665 nm after excitation at 350 nm was measured using Envision reader. The ratio of the emissions at 665 nm and at 620 nm provided the measure for the amount of phosphorylated CREBtide product of AKT1 kinase activity. To determine the IC50 values, the data was normalized (enzyme reaction without inhibitor=0% inhibition, all other assay components but no enzyme=100% inhibition) and IC50 values were calculated by a 4-parameter fit using an in-house developed protocol.
The symbol +++ represents an IC50 value <20 μM; the symbol ++ represents an IC50 value from ≥20 μM to 80 μM.

[2] = target: T2, human recombinant kinase full-length AKT1 E17K (Homo sapiens, UniProt P31749, E17K); assay: AKT1 E17K kinase assay (TR-FRET, Lance); type: biochemical; conditions: 0.6 nM AKT1 E17K, 50 nM Ulight-CREBtide, either 50 μM ATP or 2 mM ATP, 60 min at RT
T2 construct: Purified human recombinant kinase full-length AKT1 E17K was expressed in insect cells; made in house; host or cells: insect cells
Experimental: AKT1 E17K kinase assay: Inhibitory effects of compounds on AKT1 E17K were undertaken in a 10-pt dose response kinase activity assay measuring phospho-peptide product formation based on TR-FRET signal as described in the following paragraph.
as §1, with “full-length” for “full-length wildtype”, “AKT1 E17K” for “AKT1”, “AKT1 E17K, 50” for “AKT1,50”, “1.3” for “1:3”
Table 9 assigns each compound a code for potency in the AKT1 E 17K kinase assay: A, B, or C. According to the code, A represents an IC50 value <500 nM; B represents an IC50 value from ≥500 nM to <2000 nM; and C represents an IC50 value ≥2000 nM.

T1 sequence (P31749 whole entry): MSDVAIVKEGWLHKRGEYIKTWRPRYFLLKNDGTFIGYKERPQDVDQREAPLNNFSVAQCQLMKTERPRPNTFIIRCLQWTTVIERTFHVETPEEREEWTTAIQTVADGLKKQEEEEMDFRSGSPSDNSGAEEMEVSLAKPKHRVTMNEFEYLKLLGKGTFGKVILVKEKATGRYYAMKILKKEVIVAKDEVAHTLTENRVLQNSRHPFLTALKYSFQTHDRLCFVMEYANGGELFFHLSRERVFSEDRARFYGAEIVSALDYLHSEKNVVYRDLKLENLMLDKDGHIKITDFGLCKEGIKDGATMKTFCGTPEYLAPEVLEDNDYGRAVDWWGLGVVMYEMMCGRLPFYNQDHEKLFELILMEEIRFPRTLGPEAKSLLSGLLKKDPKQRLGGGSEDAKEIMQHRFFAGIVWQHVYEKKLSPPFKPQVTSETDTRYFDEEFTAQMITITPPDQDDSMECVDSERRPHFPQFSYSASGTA
T2 sequence (P31749 whole entry E17K): as the sequence (P31749 whole entry) above, with E17K counted along it

Row | Compound | IC50 [1] [nM] | IC50 [2] [nM]
1 | Nc1ncccc1-c1nc2ccc(-c3ccccc3)nc2n1-c1ccc(N[C@H]2CC[C@H](C(=O)O)CC2)nc1 (single isomer, unassigned) [Compound I-14, (1r,4r)-4-((5-(2-(2-aminopyridin-3-yl)-5-phenyl-3H-imidazo[4,5-b]pyridin-3-yl)pyridin-2-yl)amino)cyclohexane-1-carboxylic acid] | < 20000 | ≥ 2000
2 | Nc1ncccc1-c1nc2ccc(-c3ccccc3)nc2n1-c1ccc(N[C@H]2CC[C@@H](C(=O)O)CC2)nc1 (single isomer, unassigned) [Compound I-15, (1s,4s)-4-((5-(2-(2-aminopyridin-3-yl)-5-phenyl-3H-imidazo[4,5-b]pyridin-3-yl)pyridin-2-yl)amino)cyclohexane-1-carboxylic acid] | < 20000 | ≥ 2000
3 | Nc1ncccc1-c1nc2ccc(-c3ccccc3)nc2n1-c1ccc(CN(CC(F)(F)F)[C@H]2CC[C@H](C(=O)O)CC2)cc1 (single isomer, unassigned) [Compound I-188, (1r,4r)-4-((4-(2-(2-aminopyridin-3-yl)-5-phenyl-3H-imidazo[4,5-b]pyridin-3-yl)benzyl)(2,2,2-trifluoroethyl)amino)cyclohexane-1-carboxylic acid] | < 20000 | ≥ 2000
4 | Nc1ncccc1-c1nc2ccc(-c3ccccc3F)nc2n1-c1ccc([C@H]2CCN(C[C@H]3CC[C@@H](C(=O)O)CC3)C2)cc1 (single isomer, unassigned) [Compound I-228] | < 20000 | 500 to 2000
5 | Nc1ncccc1-c1nc2ccc(-c3ccccc3F)nc2n1-c1ccc([C@@H]2CCN(C[C@H]3CC[C@@H](C(=O)O)CC3)C2)cc1 (single isomer, unassigned) [Compound I-229] | < 20000 | 500 to 2000
6 | Nc1ncccc1-c1nc2ccc(-c3ccccc3F)nc2n1-c1ccc([C@@H]2CCN(C[C@H]3CC[C@H](C(=O)O)CC3)C2)cc1 (single isomer, unassigned) [Compound I-231] | < 20000 | < 500
7 | Nc1ncccc1-c1nc2ccc(-c3ccccc3)nc2n1-c1ccc([C@H]2CCN(C[C@H]3CC[C@H](C(=O)O)CC3)C2)cc1 (single isomer, unassigned) [Compound I-232] | < 20000 | 500 to 2000
8 | CC1(C)C[C@@H](C(=O)O)CC[C@@H]1CN1CC(c2ccc(-n3c(-c4cccnc4N)nc4ccc(-c5ccccc5)nc43)cc2)C1 (stereo in doubt) [Compound I-145] | < 20000 | 500 to 2000

Continued, values first:

Row | IC50 [1] [nM] | IC50 [2] [nM] | Compound
9 | < 20000 | ≥ 2000 | Nc1ncccc1-c1nc2ccc(-c3ccccc3)nc2n1-c1ccc(CN(CC(F)(F)F)[C@H]2CC[C@@H](C(=O)O)CC2)cc1 (single isomer, unassigned) [Compound I-189, (1s,4s)-4-((4-(2-(2-aminopyridin-3-yl)-5-phenyl-3H-imidazo[4,5-b]pyridin-3-yl)benzyl)(2,2,2-trifluoroethyl)amino)cyclohexane-1-carboxylic acid]
10 | < 20000 | 500 to 2000 | Nc1ncccc1-c1nc2ccc(-c3ccccc3F)nc2n1-c1ccc([C@H]2CCN(C[C@H]3CC[C@H](C(=O)O)CC3)C2)cc1 (single isomer, unassigned) [Compound I-230]
11 | < 20000 | < 500 | Nc1ncccc1-c1nc2ccc(-c3ccccc3)nc2n1-c1ccc([C@@H]2CCN(C[C@H]3CC[C@H](C(=O)O)CC3)C2)cc1 (single isomer, unassigned) [Compound I-233]
12 | < 20000 | < 500 | CC1(C)C[C@H](C(=O)O)CC[C@@H]1CN1CC(c2ccc(-n3c(-c4cccnc4N)nc4ccc(-c5ccccc5)nc43)cc2)C1 (stereo in doubt) [Compound I-144]
13 | < 20000 | < 500 | CN(Cc1ccc(-n2c(-c3cccnc3N)nc3ccc(-c4ccccc4)nc32)cc1)[C@@H]1CC[C@@H](C(=O)O)C1 (stereo in doubt) [Compound I-171]
14 | < 20000 | 500 to 2000 | CC(C)(C(=O)O)[C@@H]1CCN(Cc2ccc(-n3c(-c4cccnc4N)nc4ccc(-c5ccccc5)nc43)cc2)C1 (stereo in doubt) [Compound I-174]
